For series [1], the system named is conscious cynomolgus monkeys. In words: Cardiovascular side effects (blood pressure, heart rate) after i.v. administration. The conditions noted are these: up to 6 hours, + with * = increase from base levels. It counts as in vivo, cynomolgus monkey. The source says:
Cardiovascular measurements were made in a different group of monkeys using a BP 100S automated sphygmomanometer (Nippon Colin,. Japan).

Series [2] relates to cynomolgus monkeys with sustained elevated IOP. In words: IOP lowering in conscious monkeys, eyes made hypertensive by argon laser photocoagulation. The note with it: Macaca fascicularis, topical, single 50 μl eye drop, up to 6 hours, read-out: Maximum % Decrease From Pretreatment Levels Hypertensive Eye (IOP); for inhibition in vivo at 1 %: ocular dose 1%; for inhibition in vivo at 0.3 %: ocular dose 0.3%. It counts as in vivo, cynomolgus monkey. The source says:
Measurements of IOP were made in fully conscious female cynomolgus monkeys weighing 3-4 kg with sustained elevated IOP that was produced in the right eye by argon laser photocoagulation of the trabecular meshwork. Animals were usable for experiments 2 months following surgery. During the experiments, monkeys sat in specially designed chairs (Primate Products, San Francisco), and were fed orange juice and fruit as needed. A 30R model Digilab pneumatonometer (Alcon, Tex.) was used to measure IOP.
Twenty five μl of an anesthetic (proparacaine) was topically applied to each monkey before IOP measurements to minimize ocular discomfort due to tonometry. Two baseline measurements were made prior to instillation of the drugs, followed by periodic measurements up to 6 hours post-instillation. The test compounds were administered unilaterally as a single 50 μl eye drop; the contralateral eyes received an equal volume of saline.

Series [3] concerns the target T1, rat α2B (RNG gene) receptor (Rattus norvegicus, UniProt P19328).
T1 construct: expressed in transfected cells; host or cells: NIH-3T3 cells, calcium phosphate cotransfection
T1 sequence (P19328 1-453): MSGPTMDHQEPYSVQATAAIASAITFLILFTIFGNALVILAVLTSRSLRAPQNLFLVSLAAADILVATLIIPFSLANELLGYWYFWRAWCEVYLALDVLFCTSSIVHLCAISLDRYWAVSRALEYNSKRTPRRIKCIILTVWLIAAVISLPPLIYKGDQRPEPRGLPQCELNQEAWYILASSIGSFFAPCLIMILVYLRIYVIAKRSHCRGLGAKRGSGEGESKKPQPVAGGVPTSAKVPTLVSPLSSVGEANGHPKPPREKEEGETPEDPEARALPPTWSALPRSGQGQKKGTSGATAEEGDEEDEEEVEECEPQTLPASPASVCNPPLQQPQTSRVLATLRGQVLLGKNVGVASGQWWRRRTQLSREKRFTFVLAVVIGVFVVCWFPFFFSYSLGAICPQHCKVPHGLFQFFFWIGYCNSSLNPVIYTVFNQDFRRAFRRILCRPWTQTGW
The experiment in a line: RSAT (Receptor Selection and Amplification Technology) assay, alpha 2B. It counts as cell-based. The conditions noted are these: ratio of maximal effect to that of standard full agonist oxymetazoline. The essentials:
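NIH-3T3 cells transiently cotransfected with receptor, hybrid Gq/i5 protein and β-galactosidase marker were incubated with compound dilutions in triplicate for 72-96 hr at 37°. Proliferation was read as β-galactosidase activity (o-nitrophenyl-β-D-galactopyranoside, overnight at 30°, OD 420 nm). EC50 and efficacy were derived, the latter relative to a standard full agonist's maximal effect.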

The subject of series [4] is conscious cynomolgus monkeys. In words: Sedation score during the IOP experiments. It counts as in vivo, cynomolgus monkey. Also noted: key to Sedation (0-4): 0=alert, typical vocalization, movement, etc.; 1=calm, less movement; 2=slightly sedated, some vocalization, responsive to stimulation; 3=sedated, no vocalization, some response to stimulation; 4=asleep. As for the experimental part:
At the same time, sedation was measured and assessed according to the following score: 0=alert, typical vocalization, movement, etc.; 1=calm, less movement; 2=slightly sedated, some vocalization, responsive to stimulation; 3=sedated, no vocalization, some response to stimulation; 4=asleep.

Each structure is given as a SMILES string. Like-named read-outs stand apart in the source and are kept apart here.

In the case of `c1nc(CC2CCCCC2)c[nH]1` [Example J-1, 4(5)-cyclohexylmethyl-1H-imidazole], the “Maximum % Decrease From Pretreatment Levels, Heart Rate” value in series [1] (i.v. 17 μg/kg) is given as 13 ± 4%; in series [1] (i.v. 50 μg/kg) it was 6 ± 2%; in series [1] (i.v. 167 μg/kg) it was 3 ± 3%; in series [1] (i.v. 500 μg/kg) it was 7 ± 4%. Moreover, the “Maximum % Decrease From Pretreatment Levels, Mean Arterial Blood Pressure” value in series [1] (i.v. 17 μg/kg) is 7 ± 5.3%; in series [1] (i.v. 50 μg/kg) it was 4 ± 2%; in series [1] (i.v. 167 μg/kg) it was 7 ± 5%; in series [1] (i.v. 500 μg/kg), 13 ± 3%. In addition, the inhibition in vivo at 1 % in series [2] (6 h) is 26 ± 5%. The inhibition in vivo at 3 % in series [2] (6 h, ocular dose 3%) was determined as 33 ± 3%. Further, the “Intrinsic Activity Relative to Oxymetazoline, Alpha 2B” value in series [3] was 0.83. Further, the “Sedation (0-4)” value in series [4] (ocular dose 1%) and in series [4] (ocular dose 3%) was 0 in each case.
As for `Cc1ccc(Cc2c[nH]cn2)o1` [Example C-7, 4(5)-(5-methylfuran-2-ylmethyl)-1H-imidazole], in series [1] (i.v. 500 μg/kg), the “Maximum % Decrease From Pretreatment Levels, Heart Rate” value was 6.1 ± 3.7% and the “Maximum % Decrease From Pretreatment Levels, Mean Arterial Blood Pressure” value worked out at 3.0 ± 3.9%. For the same compound, the inhibition in vivo at 1 % in series [2] (6 h) was 32.3 ± 5.7%. In series [3], the “Intrinsic Activity Relative to Oxymetazoline, Alpha 2B” value is 0.73. The “Sedation (0-4)” value in series [4] (ocular dose 1%) amounted to 0.
Regarding `c1ccc2c(c1)CC(Cc1c[nH]cn1)CO2` (centres unmarked) [Example B-2d, 4(5)-chroman-3-ylmethyl-1H-imidazole], in series [1] (i.v. 500 μg/kg), the “Maximum % Decrease From Pretreatment Levels, Heart Rate” value is listed as “+15.5 ± 3.4* %” and the “Maximum % Decrease From Pretreatment Levels, Mean Arterial Blood Pressure” value is recorded as “+8.9 ± 3.4* %”. The inhibition in vivo at 0.1 % in series [2] (6 h, ocular dose 0.1%) amounted to 22 ± 4.6%. Further, in series [2] (6 h), the inhibition in vivo at 0.3 % is 17 ± 4.2% and the inhibition in vivo at 1 % came out at 18.1 ± 5.2%. Moreover, the “Intrinsic Activity Relative to Oxymetazoline, Alpha 2B” value in series [3] stood at 0.6. For the same compound, the “Sedation (0-4)” value in series [4] (ocular dose 0.1%) is 0. Also, the “Sedation (0-4)” value in series [4] (ocular dose 0.3%) is 0. For the same compound, the “Sedation (0-4)” value in series [4] (ocular dose 1%) was found to be 0.
With `Cc1[nH]cnc1Cc1ccc2c(c1)OCCO2` [M, 4-(2,3-dihydrobenzo[1,4]dioxin-6-ylmethyl)-5-methyl-1H-imidazole], in series [1] (i.v. 500 μg/kg), the “Maximum % Decrease From Pretreatment Levels, Heart Rate” value amounted to 5.5 ± 1.9% and the “Maximum % Decrease From Pretreatment Levels, Mean Arterial Blood Pressure” value turned out to be 0.8 ± 2.3%. The inhibition in vivo at 1 % in series [2] (6 h) stood at 22.5 ± 5.4%. Besides, the “Intrinsic Activity Relative to Oxymetazoline, Alpha 2B” value in series [3] worked out at 0.97. Moreover, the “Sedation (0-4)” value in series [4] (ocular dose 1%) was 0.
In the case of `c1csc(Cc2c[nH]cn2)c1` [Example C-2, 4(5)-thiophen-2-ylmethyl-1H-imidazole], in series [1] (i.v. 500 μg/kg), the “Maximum % Decrease From Pretreatment Levels, Heart Rate” value is 6.5 ± 2.9% and the “Maximum % Decrease From Pretreatment Levels, Mean Arterial Blood Pressure” value is 6.6 ± 1.7%. Also, the inhibition in vivo at 1 % in series [2] worked out at 29.6 ± 5.5%. For the same compound, in series [3], the “Intrinsic Activity Relative to Oxymetazoline, Alpha 2B” value is recorded as 1.3. In addition, in series [4] (ocular dose 1%), the “Sedation (0-4)” value came out at 0.
In the case of `CN1CCOc2ccc(N=C3NCCN3)cc21` [Example E-1, imidazolidin-2-ylidene-(4-methyl-3,4-dihydro-2H-benzo[1,4]oxazin-6-yl) amine], the “Maximum % Decrease From Pretreatment Levels, Heart Rate” value in series [1] (i.v. 17 μg/kg) is 11 ± 4%; in series [1] (i.v. 50 μg/kg), 14 ± 5%; in series [1] (i.v. 167 μg/kg) it was 11 ± 5%. The “Maximum % Decrease From Pretreatment Levels, Mean Arterial Blood Pressure” value in series [1] (i.v. 17 μg/kg) worked out at 7 ± 4%; in series [1] (i.v. 50 μg/kg) it was 7 ± 2%; in series [1] (i.v. 167 μg/kg), 9 ± 4%. Also, in series [2] (6 h), the inhibition in vivo at 0.3 % was 25 ± 4%. In addition, in series [2] (6 h), the inhibition in vivo at 1 % amounted to 27 ± 3%. In addition, in series [3], the “Intrinsic Activity Relative to Oxymetazoline, Alpha 2B” value worked out at 0.83. Also, the “Sedation (0-4)” value in series [4] (ocular dose 0.3%) and in series [4] (ocular dose 1%) was 0 throughout.
As to `c1ccc(Cc2c[nH]cn2)cc1` [Example C-8, 4(5)-benzyl-1H-imidazole], in series [1] (i.v. 500 μg/kg), the “Maximum % Decrease From Pretreatment Levels, Heart Rate” value is reported as 16.6 ± 1.9% and the “Maximum % Decrease From Pretreatment Levels, Mean Arterial Blood Pressure” value was 5.5 ± 2.7%. Besides, the inhibition in vivo at 1 % in series [2] is 31.2 ± 3.3%. Moreover, the “Intrinsic Activity Relative to Oxymetazoline, Alpha 2B” value in series [3] was 0.9. For the same compound, in series [4] (ocular dose 1%), the “Sedation (0-4)” value is 0.

The values above are taken from US6841684B2, “Imidiazoles having reduced side effects” (Allergan, Inc., priority 1997, dated 2005).
